Results from patent US20030100565A1, “Method for the treatment or prevention of atopic dermatitis” (Boehringer Ingelheim International GmbH, priority 2001, published 2003).

Key:
SP-induced scratching [1] = test: Effect on SP-induced scratching in guinea pigs; assay type: in vivo, Hartley guinea pigs; conditions: for effect on SP-induced scratching compared with Compounds Ia and Id: dose not stated
Experimental: Assay: Effect of NK1 Receptor Antagonist Ia, on SP-Induced Scratching in Guinea Pigs
Male Hartley guinea pigs (Japan SLC, Ltd., Shizuoka, Japan) of 4-5 weeks old weighing 275-395 g were used in the experiment. The guinea pigs were fasted more than 12 hours prior to the initiation of the experiment with free access to water. 6-8 guinea pigs were used for each group.
Prior to the recording of behaviour, the guinea pigs (one animal per cage) were kept in a cage for observation for at least 1 hour for acclimation. Compound Ia was dosed at 1 hour prior to the administration of substance P. […] SP (150 μg/body) was injected intradermally in volume of 20 μL into the rostral back (around interscapular level). Immediately after the administration of SP, the behaviour of the guinea pigs were recorded using VHS video camera for 1 hour with any persons kept out the observation room (sound proof condition). Playing back of video was served for counting the number of scratching behaviour.
The total scratching counts during 60 min of observation were analysed by one-way ANOVA and Dunnett's multiple comparison test between vehicle treatment and drug treatments; p<0.05 value was considered as significant. Scratching counts were expressed as the mean+S.E.

SP-induced scratching [2] = test: Effect on SP-induced scratching in mice; assay type: in vivo, ddY mice; conditions: for scratching behavior count induced by SP: 1 h before intradermal SP, FIG. 1, control 50.5±12.1, mean±S.E.; for scratching behaviour count induced by SP: another experiment; for effect on SP-induced scratching compared with Compounds Ia and Ib: mice, dose not stated
Experimental: Assay: Effect of NK1 Receptor Antagonist Ia, on SP-Induced Scratching in Mice Male ddY mice (Japan SLC, Ltd., Shizuoka, Japan) of 8-9 weeks of ages weighing 34-43 g, were used in the experiment. Mice were fasted 4 hours prior to the initiation of the experiment with free access to water. Epinastine and NK1 receptor antagonist of formulae Ia, Ib, Ic and Id (Compounds Ia to Id) were provided by Boehringer Ingelheim Pharma K.G. (Germany). SP (lot. No. 80K5 104) was supplied by Sigma Co., Ltd. (USA) and dissolved in physiological saline. Before recording of behavior, the mice (two animals per one cage) were put into an acryl cage for at least 5 hours for acclimation. […] Playing back of video served for counting scratching behavior. […] Data were analyzed by One-way ANOVA and post hoc Tukey test; p<0.05 value was considered. Data presented as the mean±S.E.

SP-induced scratching [3] = conditions: mice; reported by Inagaki et al., Eur J Pharmacol 2000; cited from earlier work

CN(CCc1cc(C(F)(F)F)cc(C(F)(F)F)c1)C(=O)[C@H](c1ccccc1)N1CCN(CC2CC2)CC1 [Compound Ia]
inhibition of scratching behaviour induced by SP (SP-induced scratching [1]; guinea pigs, higher doses of 0.1 mg/kg p.o., FIG. 5.1): significant inhibition
inhibition of scratching behaviour induced by SP (SP-induced scratching [1]; guinea pigs, lower doses of 0.03 mg/kg p.o., FIG. 5.2): tendency to inhibit
inhibition of scratching behaviour induced by SP, dose dependency (SP-induced scratching [1]; guinea pigs, p.o., 1 h before SP, FIG. 5): inhibited the scratching behaviour induced by SP dose dependently
scratching behavior count induced by SP (SP-induced scratching [2]; 30 mg/kg p.o.): 21.1±6.1 beats/60 min
scratching behaviour count induced by SP (SP-induced scratching [2]; 30 mg/kg p.o., FIG. 2a, control 59.0±6.0/60 min): 29.9±6.6 beats/60 min
dose dependency of effect on SP-induced scratching behavior (SP-induced scratching [2]; 10 and 30 mg/kg p.o., FIG. 3, vehicle 51.0±12.9 beats/60 min): inhibited the scratching induced by SP, and the effect was dose dependent
overall effect on scratching behaviour (conclusion) (SP-induced scratching [2]; ddY mice, effect similar to epinastine): apparent inhibitory effect

CN(CCc1cc(C(F)(F)F)cc(C(F)(F)F)c1)C(=O)[C@H](c1ccccc1)N1CCC(N(C)CCCO)CC1 [Ic, (S)-N-[2-(3,5-Bis-trifluormethyl-phenyl)-ethyl]-2-{4-[(3-hydroxy-propyl)-methyl-amino]-piperidin-1-yl}-N-methyl-2-phenyl-acetamide]
effect on SP-induced scratching compared with Compounds Ia and Id (SP-induced scratching [1]; guinea pigs): Comparable results
effect on SP-induced scratching compared with Compounds Ia and Ib (SP-induced scratching [2]): Comparable results

CN(CCc1cc(C(F)(F)F)cc(C(F)(F)F)c1)C(=O)[C@H](c1ccccc1)N1CCC(NC(CO)CO)CC1 [Compound Id, (S)-N-[2-(3,5-Bis-trifluormethyl-phenyl)-ethyl]-2-[4-(2-hydroxy-1-hydroxymethyl-ethylamino)-piperidin-1-yl]-N-methyl-2-phenylacetamid]
inhibition of scratching behaviour induced by substance P (SP-induced scratching [1]; guinea pigs, 0.3, 1.0 and 3.0 mg/kg p.o., FIG. 6): inhibited
effect on SP-induced scratching compared with Compounds Ia and Ib (SP-induced scratching [2]): Comparable results

NC1=NCC2c3ccccc3Cc3ccccc3N12 (stereo not shown) [epinastine, reference compound]
effect on SP-induced scratching (SP-induced scratching [3]): significant effect
scratching behavior count induced by SP (SP-induced scratching [2]; 10 mg/kg p.o.): 20.0±8.4 beats/60 min
scratching behaviour count induced by SP (SP-induced scratching [2]; 10 mg/kg p.o., FIG. 2b, control 51.6±7.8/60 min): 33.7±4.0 beats/60 min

(S)-N-[2-(3,5-Bis-trifluormethyl-phenyl)-ethyl]-2-{4-[cyclopropylmethyl-(3-hydroxy-propyl) -amino]-piperidin-1-yl}-N-methyl-2-phenyl-acetamid [Compound Ib]
effect on SP-induced scratching compared with Compounds Ia and Id (SP-induced scratching [1]; guinea pigs): Comparable results
inhibition of scratching behaviour induced by substance P (SP-induced scratching [2]; 30 mg/kg p.o., FIG. 4): inhibited
